Experimental data as given in ChEMBL document CHEMBL1697681, “Predicting phospholipidosis using machine learning” (Mol Pharm, 2010).

Tested on: Phospholipidosis
Assay: Literature-mined public compounds from Lowe et al phospholipidosis modelling dataset

| SMILES | Phospholipidosis |
| --- | --- |
| CN(C)CCCC1c2ccccc2Nc2ccc(Cl)cc21 (stereo not given) [CLOMACRAN] | Positive |
| Nc1nc(NC2CC2)c2ncn([C@H]3C=C[C@@H](CO)C3)c2n1 [ABACAVIR] | Negative |
| CNC(=O)Oc1ccc2c(c1)[C@]1(C)CCN(C)[C@@H]1N2C [PHYSOSTIGMINE] | Negative |
| CCSCC[C@H](N)C(=O)O [ETHIONINE] | Negative |
| CN(C)CCCN1c2ccccc2Sc2ccc(Cl)cc21 [CHLORPROMAZINE] | Positive |
| CN1CCN2c3ccccc3Cc3ccccc3C2C1 (stereo not given) [MIANSERIN] | Positive |
| CCN(CC)CCCC(C)Nc1c2ccc(Cl)cc2nc2ccc(OC)cc12 (stereo not given) [QUINACRINE] | Positive |
| Cl.Cl.O=C(CCN1CCN2CCCC2C1)N1c2ccccc2Sc2ccc(Cl)cc21 (stereo not given) [AZACLORZINE HYDROCHLORIDE] | Negative |
| CCN(CC)CCOC(=O)c1ccc(N)cc1 [PROCAINE] | Negative |
| C=CC1=C(C)/C(=C/c2[nH]c(Cc3[nH]c(/C=C4\NC(=O)C(C)=C4C=C)c(C)c3CCC(=O)O)c(CCC(=O)O)c2C)NC1=O [BILIRUBIN] | Positive |
| CC(Cc1ccccc1)NCCC(c1ccccc1)c1ccccc1 (stereo not given) [PRENYLAMINE] | Positive |
| ClC(Cl)(Cl)Cl [CARBON TETRACHLORIDE] | Negative |
| CCC(=O)C(CC(C)N(C)C)(c1ccccc1)c1ccccc1 (stereo not given) [METHADONE] | Negative |
| O=C(O)CCCCCCNC1c2ccccc2CCc2ccccc21 [AMINEPTINE] | Negative |
| CN(Cc1cc(Br)cc(Br)c1N)C1CCCCC1 [BROMHEXINE] | Positive |
| CC[C@H]1OC(=O)[C@H](C)[C@@H](O[C@H]2C[C@@](C)(OC)[C@@H](O)[C@H](C)O2)[C@H](C)[C@@H](O[C@@H]2O[C@H](C)C[C@H](N(C)C)[C@H]2O)[C@](C)(O)C[C@@H](C)C(=O)[C@H](C)[C@@H](O)[C@]1(C)O [ERYTHROMYCIN] | Positive |
| Cc1ccc2cc3c(ccc4ccccc43)c3c2c1CC3 [3-METHYLCHOLANTHRENE] | Negative |
| CCOc1ccc(NC(C)=O)cc1 [PHENACETIN] | Positive |
| CSc1ccc2c(c1)N(CCC1CCCCN1C)c1ccccc1S2 (stereo not given) [THIORIDAZINE] | Positive |
| CCN(CC)CCOc1ccc(C(O)(Cc2ccc(Cl)cc2)c2ccc(C)cc2)cc1 (stereo not given) [TRIPARANOL] | Positive |
